Measured values published in patent US10189836B2, “Therapeutic compounds, compositions and methods of use thereof” (Genentech, Inc., priority 2015, dated 2019).

What was measured:
[1] = biological target: isolated recombinant JAK2 kinase domain (Homo sapiens (Human), UniProt O60674); assay: JAK2 enzyme assay (Caliper LabChip, Ki); format: biochemical; conditions: isolated recombinant JAK2 kinase domain, 0.2 nM enzyme, ATP 25 μM
[2] = biological target: isolated recombinant JAK1 kinase domain (Homo sapiens (Human), UniProt P23458); assay: JAK1 enzyme assay (Caliper LabChip, Ki); format: biochemical; conditions: isolated recombinant JAK1 kinase domain, 1.5 nM enzyme, ATP 25 μM
Sequence of isolated recombinant JAK1 kinase domain (P23458 875-1153): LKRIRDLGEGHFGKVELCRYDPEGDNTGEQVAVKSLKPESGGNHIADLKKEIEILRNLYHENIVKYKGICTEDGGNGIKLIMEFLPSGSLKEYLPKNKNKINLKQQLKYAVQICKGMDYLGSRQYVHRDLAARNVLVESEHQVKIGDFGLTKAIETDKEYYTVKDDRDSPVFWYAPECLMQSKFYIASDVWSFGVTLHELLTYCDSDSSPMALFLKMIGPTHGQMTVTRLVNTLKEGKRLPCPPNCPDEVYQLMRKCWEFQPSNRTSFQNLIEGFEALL

Sequence of isolated recombinant JAK2 kinase domain (O60674 849-1124): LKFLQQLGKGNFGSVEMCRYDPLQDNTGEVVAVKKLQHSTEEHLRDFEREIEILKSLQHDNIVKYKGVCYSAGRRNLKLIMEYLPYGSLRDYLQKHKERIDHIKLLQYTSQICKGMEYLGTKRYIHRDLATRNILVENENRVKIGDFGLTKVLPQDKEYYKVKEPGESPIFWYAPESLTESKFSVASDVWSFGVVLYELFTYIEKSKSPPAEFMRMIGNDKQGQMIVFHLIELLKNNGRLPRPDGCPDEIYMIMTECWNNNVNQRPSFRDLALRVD

| Compound | Ki [1] [nM] | Ki [2] [nM] |
| --- | --- | --- |
| CN1CCN(C(=O)Cn2cc(Nc3nc4c(N5CC6CCC(C5)C6=CC#N)cccn4n3)cn2)CC1 [Example 118, 2-[3-[2-[[1-[2-(4-methylpiperazin-1-yl)-2-oxo-ethyl]pyrazol-4-yl]amino]-[1,2,4]triazolo[1,5-a]pyridin-8-yl]-3-azabicyclo[3.2.1]octan-8-ylidene]acetonitrile] | 1.5 | 0.5 |
| N#CC1(CNC2CCN(C(=O)Cn3cc(Nc4nc5c(N6CC7CCC(C6)N7C(=O)N6CC(C(F)(F)F)C6)cccn5n4)cn3)CC2)CC1 [Example 119, 1-[[[1-[2-[4-[[8-[8-[3-(trifluoromethyl)azetidine-1-carbonyl]-3,8-diazabicyclo[3.2.1]octan-3-yl]-[1,2,4]triazolo[1,5-a]pyridin-2-yl]amino]pyrazol-1-yl]acetyl]-4-piperidyl]amino]methyl] cyclopropanecarbonitrile] | 0.8 | 0.8 |
| CC(F)(F)CNC1CCN(C(=O)Cn2cc(Nc3nc4c(N5CC6CCC(C5)N6C(=O)N5CC(C(F)(F)F)C5)cccn4n3)cn2)CC1 [Example 120, 1-[4-(2,2-difluoropropylamino)-1-piperidyl]-2-[4-[[8-[8-[3-(trifluoromethyl)azetidine-1-carbonyl]-3,8-diazabicyclo[3.2.1]octan-3-yl]-[1,2,4]triazolo[1,5-a]pyridin-2-yl]amino]pyrazol-1-yl]ethanone] | 0.7 | 0.6 |
| O=C(Cn1cc(Nc2nc3c(N4CC5CCC(C4)N5C(=O)N4CC(C(F)(F)F)C4)cccn3n2)cn1)N1CCC(CN2CCOCC2)CC1 [Example 121, 1-[4-(morpholinomethyl)-1-piperidyl]-2-[4-[[8-[8-[3-(trifluoromethyl)azetidine-1-carbonyl]-3,8-diazabicyclo[3.2.1]octan-3-yl]-[1,2,4]triazolo[1,5-a]pyridin-2-yl]amino]pyrazol-1-yl]ethanone] | 0.7 | 0.7 |
| CN1CCN(C(=O)Cn2cc(Nc3nc4c(N5CC6CCCC(C5)N6C(=O)N5CC(C(F)(F)F)C5)cccn4n3)cn2)CC1 [Example 122, 1-(4-methylpiperazin-1-yl)-2-[4-[[8-[9-[3-(trifluoromethyl)azetidine-1-carbonyl]-3,9-diazabicyclo[3.3.1]nonan-3-yl]-[1,2,4]triazolo[1,5-a]pyridin-2-yl]amino]pyrazol-1-yl]ethanone] | 0.3 | 0.4 |
| CC(C(=O)N1CCN(C)CC1)n1cc(Nc2nc3c(N4CC5CCC(C4)N5C(=O)C4CC(C(F)(F)F)C4)cccn3n2)cn1 (centres unmarked) [Example 123, 1-(4-methylpiperazin-1-yl)-2-[4-[[8-[8-(3-(trifluoromethyl)-cyclobutanecarbonyl]-3,8-diazabicyclo[3.2.1]octan-3-yl]-[1,2,4]triazolo[1,5-a]pyridin-2-yl]amino]pyrazol-1-yl]propan-1-one] | 0.5 | 0.5 |
| CC(C(=O)N1CCN(C)CC1)n1cc(Nc2nc3c(N4CC5CCC(C4)N5C(=O)C4CC(C(F)(F)F)C4)cccn3n2)cn1 (centres unmarked) [Example 124, 1-(4-methylpiperazin-1-yl)-2-[4-[[8-[8-(3-(trifluoromethyl)-cyclobutanecarbonyl]-3,8-diazabicyclo[3.2.1]octan-3-yl]-[1,2,4]triazolo[1,5-a]pyridin-2-yl]amino]pyrazol-1-yl]propan-1-one] | 3.7 | 1.9 |
| CC(C(=O)N1CCN(C)CC1)n1cc(Nc2nc3c(N4CC5CCC(C4)N5C(=O)C4CC(C(F)(F)F)C4)cccn3n2)cn1 (centres unmarked) [Example 125, 1-(4-methylpiperazin-1-yl)-2-[4-[[8-[8-(3-(trifluoromethyl)-cyclobutanecarbonyl]-3,8-diazabicyclo[3.2.1]octan-3-yl]-[1,2,4]triazolo[1,5-a]pyridin-2-yl]amino]pyrazol-1-yl]propan-1-one] | 0.4 | 0.6 |
| CC(C(=O)N1CCN(C)CC1)n1cc(Nc2nc3c(N4CC5CCC(C4)N5C(=O)C4CC(C(F)(F)F)C4)cccn3n2)cn1 (centres unmarked) [Example 126, 1-(4-methylpiperazin-1-yl)-2-[4-[[8-[8-(3-(trifluoromethyl)-cyclobutanecarbonyl]-3,8-diazabicyclo[3.2.1]octan-3-yl]-[1,2,4]triazolo[1,5-a]pyridin-2-yl]amino]pyrazol-1-yl]propan-1-one] | 1.6 | 2.5 |
| CN1CCN(C(=O)Cn2cc(Nc3nc4c(N5C[C@H]6CC[C@@H](C5)[C@H]6N(C)CCC(F)(F)F)cccn4n3)cn2)CC1 [Example 127, 1-(4-methylpiperazin-1-yl)-2-[4-[[8-[(1S,5R)-8-[methyl(3,3,3-trifluoropropyl)amino]-3-azabicyclo[3.2.1]octan-3-yl]-[1,2,4]triazolo[1,5-a]pyridin-2-yl]amino]pyrazol-1-yl]ethanone] | 11.5 | 4.6 |
| CN1CCN(C(=O)Cn2cc(Nc3nc4c(N5C[C@H]6CC[C@@H](C5)[C@H]6OCc5ccc(C#N)cc5)cccn4n3)cn2)CC1 [Example 128, 4-[[(1S,5R)-3-[2-[[1-[2-(4-methylpiperazin-1-yl)-2-oxo-ethyl]pyrazol-4-yl]amino]-[1,2,4]triazolo[1,5-a]pyridin-8-yl]-3-azabicyclo[3.2.1]octan-8-yl]oxymethyl]benzonitrile] | 1 | 0.4 |
| CN1CCN(C(=O)Cn2cc(Nc3nc4c(N5C[C@H]6CC[C@@H](C5)[C@H]6OCc5cccc(C#N)c5)cccn4n3)cn2)CC1 [Example 129, 3-[[(1S,5R)-3-[2-[[1-[2-(4-methylpiperazin-1-yl)-2-oxo-ethyl]pyrazol-4-yl]amino]-[1,2,4]triazolo[1,5-a]pyridin-8-yl]-3-azabicyclo[3.2.1]octan-8-yl]oxymethyl]benzonitrile] | 2.3 | 0.6 |
| CC(C)(C#N)CNC1CCN(C(=O)Cn2cc(Nc3nc4c(N5CC6CCC(C5)N6C(=O)N5CC(C(F)(F)F)C5)cccn4n3)cn2)CC1 [Example 131, 2,2-dimethyl-3-[[1-[2-[4-[[8-[8-[3-(trifluoromethyl)azetidine-1-carbonyl]-3,8-diazabicyclo[3.2.1]octan-3-yl]-[1,2,4]triazolo[1,5-a]pyridin-2-yl]amino]pyrazol-1-yl]acetyl]-4-piperidyl]amino]-propanenitrile] | 0.7 | 1.1 |
| CSc1ccccc1S(=O)(=O)N1C2CCC1CN(c1cccn3nc(Nc4cnn(CC(=O)N5CCN(C)CC5)c4)nc13)C2 [Example 132, 1-(4-methylpiperazin-1-yl)-2-[4-[[8-[8-(2-methylsulfanylphenyl)sulfonyl-3,8-diazabicyclo[3.2.1]octan-3-yl]-[1,2,4]triazolo[1,5-a]pyridin-2-yl]amino]pyrazol-1-yl]ethanone] | 0.4 | 0.4 |
| CN1CCN(C(=O)Cn2cc(Nc3nc4c(N5CC6CCC(C5)N6S(=O)(=O)c5cccc(C(F)(F)F)c5)cccn4n3)cn2)CC1 [Example 133, 1-(4-methylpiperazin-1-yl)-2-[4-[[8-[8-(3-(trifluoromethyl)phenyl]sulfonyl-3,8-diazabicyclo[3.2.1]octan-3-yl]-[1,2,4]triazolo[1,5-a]pyridin-2-yl]amino]pyrazol-1-yl]ethanone] | 1.5 | 0.8 |
| CN1CCN(C(=O)Cn2cc(Nc3nc4c(N5CC6CCC(C5)N6S(=O)(=O)c5ccc(F)cc5)cccn4n3)cn2)CC1 [Example 134, 2-[4-[[8-[8-(4-fluorophenyl)sulfonyl-3,8-diazabicyclo[3.2.1]octan-3-yl]-[1,2,4]triazolo[1,5-a]pyridin-2-yl]amino]pyrazol-1-yl]-1-(4-methylpiperazin-1-yl)ethanone] | 0.5 | 0.4 |
